Test results published in patent US20190091227A1, “METHODS FOR TREATING ER+, HER2-, HRG+ BREAST CANCER USING COMBINATION THERAPIES COMPRISING AN ANTI-ERBB3 ANTIBODY” (Merrimack Pharmaceuticals, Inc., priority 2016, published 2019).
Read-outs that look alike come from different tables or passages of the source.

Key:
[1] = system: MCF7 cells; test: Proliferation assay (Cell Titer-Glo), MCF7; format: cell-based, human; conditions: for proliferation: MCF7, single agent CDK4/6 inhibitor over a dose range
Description: (§1) Cells were seeded in duplicate or triplicate at 1500 to 5000 cells per well in 96 well plates, Opaque-walled 96-well plates with clear bottom: 96-well, Black/Clear, Flat bottom with lid, FALCON, 353219 in reduced serum conditions at either 3% v/v FBS or 1% v/v FBS. The day after plating recombinant HRGβ1 was added to yield a final concentration of 10 nM. Control wells received media without HRGβ1. Plates were then incubated for the indicated time period of 4 to 6 days at 37° C. in a humid atmosphere with 95% air, 5% CO2.
(§2) The day after plating recombinant HRGβ1 was added to yield a final concentration of 10 nM. Control wells received media without HRGβ1. […] Where indicated CDK inhibitors were added at 10 μM and dilutions were performed to generate a dose-response curve with 2 controls wells per row. Plates were then incubated for the indicated time period of 4 to 6 days at 37° C. in a humid atmosphere with 95% air, 5% CO2. Growth inhibition was calculated as a function of the relative inhibition or proliferation of cells treated with either growth factor or antagonists to cells treated with diluent only, over the same time period.
(§3) The day after plating recombinant HRGβ1 was added to yield a final concentration of 10 nM. Control wells received media without HRGβ1. […] Where indicated CDK inhibitors were added at 10 μM and dilutions were performed to generate a dose-response curve with 2 controls wells per row. Plates were then incubated for the indicated time period of 4 to 6 days at 37° C. in a humid atmosphere with 95% air, 5% CO2.
(§4) To measure proliferation, Cell Titer-Glo (CTG) assays were performed as per manufacturer's instructions. Specifically, reagent-1 and reagent-2 were equilibrated to room temperature at which point reagent-1 was added to reagent-2 and mixed by vortex. Test plates containing cells were equilibrated to room temperature for 30 minutes at which point an equal volume of CTG reagent was added to each well of the test plate, typically 100 μl to give a final volume of 200 μl per well. Each plate was then sealed with a foil plate sealer and mixed on an orbital shaker for 10 minutes to lyse cells and release cellular ATP. Following mixing plates were incubated at room temperature for 15 minutes to stabilize the luminescent signal. Data was collected by measuring relative luminescence on a Synergy H1 plate reader using the luminescence program. Growth was calculated and expressed as a relative value to the unstimulated control wells on each individual plate. Growth inhibition was calculated as a function of the relative inhibition of cells treated with antagonists to the growth of cells treated with diluent only, over the same time period. Data was then plotted using GraphPad Prism software.

[2] = cited from earlier work
[3] = system: MCF-7Ca xenograft tumors; test: MCF-7Ca xenograft model of post-menopausal ER+ breast cancer; format: in vivo, mice
Description: A model of post-menopausal ER+ breast cancer was used to determine the effect of blocking HRG-mediated ERB3 signaling and/or estrogen-mediated ER activation on tumor growth (FIG. 16). […] Changes in mean tumor volume (±SEM) were determined weekly by caliper measurement.

[4] = system: RB; test: RB phosphorylation (S807/811, S780) by Western blotting in MCF7 cells; format: cell-based, human; conditions: for RB phosphorylation / activation: MCF7, 20-24 hours, HRG 10 nM, fulvestrant 50 nM, palbociclib, abemaciclib 40 nM
Description: MCF7 cells were cultured as described above. […] Cellular lysates were prepared by lysis in MPER lysis buffer with the addition of protease and phosphatase inhibitors for 30 mins on ice. Cellular debris were removed by centrifugation at 10,000 rpm. Proteins were analyzed by Western blotting according to standard protocols. Protein loading was estimated by blotting with a β-actin antibody (β-Actin (13E5) Rabbit mAb #4970 Cell Signal) and RB activation was measured by detection of phosphorylation of RB (pRB) at pRb (S807/811): Cat #8516 pRb (S780): Cat #8180. Control antibodies as follows total AKT: Cat #9272 pAKT: Cat #4060.

[5] = system: CDK2; test: CDK2 activation (phospho-Thr160) by Western blotting in MCF7 cells; format: cell-based, human
Description: Cellular lysates were prepared by lysis in MPER lysis buffer with the addition of protease and phosphatase inhibitors for 30 minutes on ice. Cellular debris was removed by centrifugation at 10,000 rpm. Proteins were analyzed by Western blotting according to standard protocols.

[6] = system: T47D cells; test: Proliferation assay (Cell Titer-Glo), T47D; format: cell-based, human
Description: as §1, §2, §3, §4

[7] = system: MCF7 cells; test: Cell cycle / S-phase by EdU incorporation and flow cytometry in MCF7 cells; format: cell-based, human
Description: FIG. 13 is a representative FACS plot of the cell cycle distribution. The gate settings and percentage for cells in G0/G1, S and G2/M phases are indicated. DNA synthesis (S-phase) was determined by quantifying cells positive for both EdU incorporation and DNA content.

[8] = system: MCF7 cells; test: MCF7 orthotopic xenograft model of ER+ HER2- breast cancer; format: in vivo; conditions: SHO mice
Description: Female SHO mice (Charles River Laboratories) aged 8-10 weeks were implanted with 17-beta-estradiol pellets (0.72 mg/pellet) and 2 days later, injected with 100 μl of 5×10^6 MCF7 cells suspended in 50% DPBS/50% matrigel into the abdominal mammary fat pad. Tumor growth was monitored twice a week and tumor volumes were calculated following external caliper measurement according to the formula (tumor size=π/6×[length×width^2]). Once the average measured tumor volume had reached approximately 200 mm^3, mice were randomized into groups and treatment was administered. Overall, the average starting tumor volume per group was equivalent across all groups. Fulvestrant was dosed at 500 μg per mouse once per week via subcutaneous delivery. Palbociclib was dosed at 25 mg/kg, orally every day for 5 days, Monday through Friday.

[9] = system: ZR75-1 cells; test: Proliferation assay (Cell Titer-Glo), ZR75-1; format: cell-based, human; conditions: ZR75-1, CDK4/6 inhibitor plus HRG
Description: as §2
The day after plating recombinant HRGβ1 was added to yield a final concentration of 10 nM. Control wells received media without HRGβ1. […]
To measure proliferation, Cell Titer-Glo (CTG) assays were performed as per manufacturer's instructions. […] Data was collected by measuring relative luminescence on a Synergy H1 plate reader using the luminescence program. Growth was calculated and expressed as a relative value to the unstimulated control wells on each individual plate. Growth inhibition was calculated as a function of the relative inhibition of cells treated with antagonists to the growth of cells treated with diluent only, over the same time period. […]

CN(C)C(=O)c1cc2cnc(Nc3ccc(N4CCNCC4)cn3)nc2n1C1CCCC1 [ribociclib, 7-cyclopentyl-N,N-dimethyl-2-((5-(piperazin-1-yl)pyridin-2-yl)amino)-7H-pyrrolo[2,3-d]pyrimidine-6-carboxamide, reference compound]
proliferation ([1]; 6 days): inhibited proliferation in a dose dependent manner

CC(C)(C#N)c1cc(Cn2cncn2)cc(C(C)(C)C#N)c1 [anastrozole, a,a,a′,a′-Tetramethyl-5-(1H-1,2,4-triazol-1-ylmethyl)-1,3-benzenediacetonitrile]
solubility ([2]; in acetone): freely soluble
solubility ([2]; in acetonitrile): very soluble
solubility ([2]; in ethanol): freely soluble
solubility ([2]; in methanol): freely soluble
solubility ([2]; in tetrahydrofuran): freely soluble

N#Cc1ccc(C(c2ccc(C#N)cc2)n2cncn2)cc1 [letrozole, 4,4′-(1H-1,2,4-Triazol-1-ylmethylene)dibenzonitrile]
tumor response ([3]; letrozole 10 μg/mouse/day x 5 days/week SQ): initially responded
start of development of resistance ([3]; letrozole monotherapy, time of treatment): 7-8 weeks
solubility ([2]; in dichloromethane): freely soluble
solubility ([2]; in ethanol): slightly soluble
solubility ([2]; in water): practically insoluble

CCN1CCN(Cc2ccc(Nc3ncc(F)c(-c4cc(F)c5nc(C)n(C(C)C)c5c4)n3)nc2)CC1 [abemaciclib, 2-pyrimidinamine, N-(5-((4-ethyl-1-piperazinyl)methyl)-2-pyridinyl)-5-fluoro-4-(4-fluoro-2-methyl-1-(1-methylethyl)-1H-benzimidazol-6-yl), reference compound]
RB phosphorylation / activation [4]: decrease RB activation
proliferation ([1]; 6 days): inhibited proliferation in a dose dependent manner

C[C@]12CC[C@@H]3c4ccc(O)cc4C[C@@H](CCCCCCCCC[S+]([O-])CCCC(F)(F)C(F)(F)F)[C@H]3[C@@H]1CC[C@@H]2O (stereo partly drawn) [fulvestrant, 7-alpha-[9-(4,4,5,5,5-pentafluoropentylsulphinyl)nonyl]estra-1,3,5-(10)-triene-3,17beta-diol, reference compound]
CDK2 activation ([5]; MCF7, agent alone, 20-24 hours, HRG 10 nM, fulvestrant, palbociclib, abemaciclib 100 nM): inhibited CDK2 activation
RB phosphorylation / activation [4]: inhibits RB activation
degree of inhibition of proliferation ([1]; MCF7, CDK4/6 inhibitor plus fulvestrant (50 nM)): greater than the activity of the CDK4/6 inhibitor alone
fulvestrant activity on proliferation ([1]; MCF7, HRG present in addition to estradiol): significantly decreased
inhibition of estradiol induced proliferation ([1]; MCF7, fulvestrant 100 nM, 6 days): effective at inhibiting estradiol induced proliferation
fulvestrant activity on proliferation ([6]; HRG present in addition to estradiol): significantly decreased
inhibition of estradiol induced proliferation ([6]; fulvestrant 100 nM, 6 days): effective at inhibiting estradiol induced proliferation
S-phase cell cycle progression ([7]; MCF7, single agents in the absence of HRG): efficacious at inhibiting S-phase cell cycle progression

B1: seribantumab: human monoclonal anti-ErbB3 IgG2; heavy and light chains SEQ ID NO: 7 and 8 (antibody)
heavy: EVQLLESGGGLVQPGGSLRLSCAASGFTFSHYVMAWVRQAPGKGLEWVSSISSSGGWTLYADSVKGRFTISRDNSKNTLYLQMNSLRAEDTAVYYCTRGLKMATIFDYWGQGTLVTVSSASTKGPSVFPLAPCSRSTSESTAALGCLVKDYFPEPVTVSWNSGALTSGVHTFPAVLQSSGLYSLSSVVTVPSSNFGTQTYTCNVDHKPSNTKVDKTVERKCCVECPPCPAPPVAGPSVFLFPPKPKDTLMISRTPEVTCVVVDVSHEDPEVQFNWYVDGVEVHNAKTKPREEQFNSTFRVVSVLTVVHQDWLNGKEYKCKVSNKGLPAPIEKTISKTKGQPREPQVYTLPPSREEMTKNQVSLTCLVKGFYPSDIAVEWESNGQPENNYKTTPPMLDSDGSFFLYSKLTVDKSRWQQGNVFSCSVMHEALHNHYTQKSLSLSPGK
light: QSALTQPASVSGSPGQSITISCTGTSSDVGSYNVVSWYQQHPGKAPKLIIYEVSQRPSGVSNRFSGSKSGNTASLTISGLQTEDEADYYCCSYAGSSIFVIFGGGTKVTVLGQPKAAPSVTLFPPSSEELQANKATLVCLVSDFYPGAVTVAWKADGSPVKVGVETTKPSKQSNNKYAASSYLSLTPEQWKSHRSYSCRVTHEGSTVEKTVAPAECS
effect on HRG-induced CDK2 activation ([5]; MCF7, in the presence of fulvestrant or CDK4/6 inhibitors palbociclib and abemaciclib): blocked HRG mediated activation of CDK2
effect on HRG-induced CDK2 activation ([5]; MCF7, seribantumab 1 uM, HRG 10 nM): can block the activating effect of HRG on CDK2 activation
resistance to letrozole ([3]; co-treated with letrozole and seribantumab): substantially delayed
tumor growth ([3]; co-treated with letrozole and seribantumab (750 μg/mouse IP)): tumor growth was inhibited
tumor growth of letrozole-resistant tumors ([3]; re-randomized at week 14, letrozole and seribantumab compared to letrozole alone): significantly decreased tumor growth
growth inhibition, addition of seribantumab to the combination of palbociclib and fulvestrant [8]: increases the growth inhibition
antitumor efficacy, addition of seribantumab to fulvestrant ([8]; seribantumab 600 μg twice per week IP, fulvestrant 500 μg once per week SC): increased the antitumor efficacy
antitumor efficacy, addition of seribantumab to palbociclib ([8]; seribantumab 600 μg twice per week IP, palbociclib 25 mg/kg orally): increased the antitumor efficacy
effect of adding seribantumab on CDK4/6 inhibitor activity [9]: restored sensitivity
effect of seribantumab on activity of fulvestrant, palbociclib and abemaciclib on RB ([4]; MCF7, seribantumab 1 uM, with HRG, alone or in combination): restored the activity
effect of adding seribantumab on CDK4/6 inhibitor activity ([1]; MCF7, CDK4/6 inhibitor plus HRG 10 nM): restored CDK inhibitory activity
effect of adding seribantumab on the CDK4/6 inhibitor-fulvestrant combination ([1]; MCF7, with HRG): restored sensitivity
effect of adding seribantumab on proliferation ([1]; MCF7 treated with fulvestrant, estradiol and HRG): restoration of the activity of fulvestrant
effect of seribantumab on cell cycle inhibitory activity of fulvestrant or palbociclib ([7]; MCF7, in the presence of HRG): restores this activity
effect of seribantumab on cell cycle inhibitory activity of the palbociclib-fulvestrant combination ([7]; MCF7, in the presence of HRG): restored this activity
